Experimental data from article PMC4314633, “Homo-β-amino acid containing MBP(85–99) analogs alleviate experimental autoimmune encephalomyelitis” (Scientific Reports, 2015).
Where a SMILES comes first, the peptide text is derived from it. [ ]: non-standard residue; d: D form. ξ: configuration not given here. ξβ3hE = NC(CCC(=O)O)CC(=O)O; ξβ3hK = NCCCCC(N)CC(=O)O; ξβ3hA = CC(N)CC(=O)O

What was measured:
α-chymotrypsin = α-chymotrypsin (Bos taurus, UniProt P00766); assay: Proteolysis assay with chymotrypsin, RP-HPLC; format: in vitro ADME; conditions: chymotrypsin 0.1 μg/ml, peptide 1 mg/ml, PBS with 0.01% sodium azide, 37°C
Procedure: Aliquots were drawn at various time points and analyzed by high pressure liquid chromatography (HPLC, Shimadzu). Degradation mixtures were resolved on a C18 column (Phenomenix) using acetonitrile/water with 0.1% trifluroacetic acid (TFA) as a solvent system at a flow rate of 0.4 ml/minute. Analogs un-cleaved in the reaction mixture were quantified in terms of percent peak area. […] Aliquots were drawn and analyzed on a polyacrylamide gel (15%).

[1] = tested on: experimental autoimmune encephalomyelitis in SJL/J mice; assay: EAE treatment setup in SJL/J mice; format: in vivo, mouse; conditions: treatment: 100 μg subcutaneously daily for a week
Procedure: Animals were perfused intra-cardially with ice cold PBS and 4% paraformaldehyde (PFA) sequentially under deep anesthesia. Thereafter intact spinal cord tissue was dissected out, equilibrated with 30% sucrose and embedded in tissue freezing media (Polyfreez, Polysciences). Subsequently, transverse sections (15 μM thick) were cut through lumbar region in a cryotome (Thermo) and collected in storage buffer (30% glycerol and ethylene glycol in PBS). Sections were retrieved from storage buffer, transferred into citrate buffer (10 mM, pH 6.0) and incubated at 65°C for 30 minutes for antigen retrieval. After 30 minute incubation period, sections were equilibrated with PBS and blocked using 3% bovine serum albumin and 1% normal serum for 2 hours at room temperature. […]

RRMS = conditions: cited from earlier work
Source text: However, therapeutic potencies of such antigen-specific modalities has always been moderate due to their peptidic nature e.g. in the case of GA it is only 20–30 percent. Expectedly, it is their minimal stability in proteolytic milieu and thus inefficient presentation on antigen presenting cells (APCs) which perhaps gets translated into their reduced efficacy.

[2] = tested on: experimental autoimmune encephalomyelitis in SJL/J mice; assay: EAE prevention (pre-treatment) setup in SJL/J mice; format: in vivo, mouse; conditions: prevention: 400 μg in IFA a week prior to immunization with MBP(85–99)
Procedure: EAE was induced and assessed as described previously. SJL/J (female; 6–8 week old) were injected subcutaneously with 100 μg of MBP(85–99) (two immunizations spaced a week apart) emulsified in complete Freund's adjuvant (CFA). Immunized mice were also given an intra-peritoneal injection of pertussis toxin (200 ng) on day 0 and 2. Severity of clinical disability was scored on a scale of 0 to 5, where, 0, no detectable signs of EAE; 1, complete tail paralysis; 2, wobbly gait; 3, complete hind limb paralysis; 4, complete hind and fore limb paralysis or moribund; 5, dead.

Compound: CC(C)[C@H](NC(=O)[C@H](CCCCN)NC(=O)[C@@H]1CCCN1C(=O)[C@H](CCCCN)NC(=O)[C@@H](N)CCC(=O)O)C(=O)N[C@@H](CCC(=O)O)C(=O)N[C@@H](C)C(=O)N[C@@H](Cc1ccc(O)cc1)C(=O)N[C@@H](CCCCN)C(=O)N[C@@H](C)C(=O)N[C@@H](C)C(=O)N[C@@H](C)C(=O)N[C@@H](C)C(=O)N1CCC[C@H]1C(=O)N[C@@H](C)C(=O)O [J5]
- percent hydrolyzed (α-chymotrypsin; in 6 hours, RP-HPLC percent peak area): > 50%

Compound: CC(CC(=O)O)NC(=O)CC(C)NC(=O)CC(C)NC(=O)CC(C)NC(=O)CC(CCCCN)NC(=O)[C@H](Cc1ccc(O)cc1)NC(=O)[C@H](C)NC(=O)[C@H](CCC(=O)O)NC(=O)[C@@H](NC(=O)[C@H](CCCCN)NC(=O)[C@@H]1CCCN1C(=O)CC(CCCCN)NC(=O)CC(N)CCC(=O)O)C(C)C (stereo partly drawn) [S18] (H-[ξβ3hE][ξβ3hK]PKVEAY[ξβ3hK][ξβ3hA][ξβ3hA][ξβ3hA][ξβ3hA]-OH)
- time up to which detectable in the reaction mixture (α-chymotrypsin; RP-HPLC): ≤ 2 days
- percent remaining intact in reaction mixture (α-chymotrypsin; after 12 hours, RP-HPLC percent peak area, n ≥ 3): > 90%

Compound: glatiramer acetate [GA]
- duration of therapeutic effect post-treatment [1]: ~ 1.7 weeks
- reduction of disease severity (cumulative disability score) [1]: 30–35%
- therapeutic potency (RRMS): 20–30%
- reduction of disease severity (cumulative disability score) [2]: 40–50%
